Results: PMC12454493, “Insight on novel sulfamoylphenyl pyrazole derivatives as anticancer carbonic anhydrase inhibitors” (Molecular Diversity, 2024)

Key:
Type in all cases: cell-based
CCRF-CEM = assay: NCI-60 one-dose SRB screen (Leukemia); details: Homo sapiens, single dose 10 µM, 48 h, read-out: Growth inhibition percent (GI %)
Experimental: (§1) The National Cancer Institute (NCI) Developmental Therapeutic Program (www.dtp.nci.nih.gov) selected the 20 novel synthesized compounds 4a-e, 5a-e, 6a-c, 9a-e, 10 and 11 to test for their anticancer activity at a single dose of 10 µM using SRB assay. […] Supplementary Data S3; Table S1 presents the detailed screening results of the most promising compounds. The preliminary screening’s detailed results for the remaining compounds are elucidated in the (Supplementary Data S3; Table S2).
(§2) The guidelines of the Drug Evaluation Branch’s protocol at the NCI in Bethesda served as the basis for the in vitro anticancer screening assays. at one dose 10 µM against a panel of 60 cancer cell lines. The human tumor cell lines used belonged to nine panels: leukemia, melanoma, lung, colon, CNS, ovarian, renal, prostate and breast cancers using the sulforhodamine B (SRB) assay in a 48 h drug exposure protocol.

HL-60(TB) = assay: NCI-60 one-dose SRB screen (Leukemia); details: Homo sapiens, single dose 10 µM, 48 h, read-out: Growth inhibition percent (GI %)
Experimental: as §1, §2

K-562 = assay: NCI-60 one-dose SRB screen (Leukemia); details: Homo sapiens, K562, single dose 10 µM, 48 h, read-out: Growth inhibition percent (GI %)
Experimental: as §1, §2

MOLT-4 = assay: NCI-60 one-dose SRB screen (Leukemia); details: Homo sapiens, single dose 10 µM, 48 h, read-out: Growth inhibition percent (GI %)
Experimental: as §1, §2

RPMI-8226 = assay: NCI-60 one-dose SRB screen (Leukemia); details: Homo sapiens, single dose 10 µM, 48 h, read-out: Growth inhibition percent (GI %)
Experimental: as §1, §2

SR = assay: NCI-60 one-dose SRB screen (Leukemia); details: Homo sapiens, single dose 10 µM, 48 h, read-out: Growth inhibition percent (GI %)
Experimental: as §1, §2

A549/ATCC = assay: NCI-60 one-dose SRB screen (Non-Small Cell Lung Cancer); details: Homo sapiens, single dose 10 µM, 48 h, read-out: Growth inhibition percent (GI %)
Experimental: as §1, §2

EKVX = assay: as above; details: Homo sapiens, single dose 10 µM, 48 h, read-out: Growth inhibition percent (GI %)
Experimental: as §1, §2

HOP-62 = assay: as above; details: Homo sapiens, single dose 10 µM, 48 h, read-out: Growth inhibition percent (GI %)
Experimental: as §1, §2

HOP-92 = assay: as above; details: Homo sapiens, single dose 10 µM, 48 h, read-out: Growth inhibition percent (GI %)
Experimental: as §1, §2

NCI-H226 = assay: as above; details: Homo sapiens, single dose 10 µM, 48 h, read-out: Growth inhibition percent (GI %)
Experimental: as §1, §2

NCI-H23 = assay: as above; details: Homo sapiens, single dose 10 µM, 48 h, read-out: Growth inhibition percent (GI %)
Experimental: as §1, §2

NCI-H322M = assay: as above; details: Homo sapiens, single dose 10 µM, 48 h, read-out: Growth inhibition percent (GI %)
Experimental: as §1, §2

NCI-H460 = assay: as above; details: Homo sapiens, single dose 10 µM, 48 h, read-out: Growth inhibition percent (GI %)
Experimental: as §1, §2

NCI-H522 = assay: as above; details: Homo sapiens, single dose 10 µM, 48 h, read-out: Growth inhibition percent (GI %)
Experimental: as §1, §2

COLO 205 = assay: NCI-60 one-dose SRB screen (Colon Cancer); details: Homo sapiens, single dose 10 µM, 48 h, read-out: Growth inhibition percent (GI %)
Experimental: as §1, §2

HCC-2998 = assay: NCI-60 one-dose SRB screen (Colon Cancer); details: Homo sapiens, single dose 10 µM, 48 h, read-out: Growth inhibition percent (GI %)
Experimental: as §1, §2

HCT-116 = assay: NCI-60 one-dose SRB screen (Colon Cancer); details: Homo sapiens, single dose 10 µM, 48 h, read-out: Growth inhibition percent (GI %)
Experimental: as §1, §2

HCT-15 = assay: NCI-60 one-dose SRB screen (Colon Cancer); details: Homo sapiens, single dose 10 µM, 48 h, read-out: Growth inhibition percent (GI %)
Experimental: as §1, §2

HT29 = assay: NCI-60 one-dose SRB screen (Colon Cancer); details: Homo sapiens, HT-29, single dose 10 µM, 48 h, read-out: Growth inhibition percent (GI %)
Experimental: as §1, §2

KM12 = assay: NCI-60 one-dose SRB screen (Colon Cancer); details: Homo sapiens, single dose 10 µM, 48 h, read-out: Growth inhibition percent (GI %)
Experimental: as §1, §2

SW-620 = assay: NCI-60 one-dose SRB screen (Colon Cancer); details: Homo sapiens, single dose 10 µM, 48 h, read-out: Growth inhibition percent (GI %)
Experimental: as §1, §2

SF-268 = assay: NCI-60 one-dose SRB screen (CNS Cancer); details: Homo sapiens, single dose 10 µM, 48 h, read-out: Growth inhibition percent (GI %)
Experimental: as §1, §2

SF-295 = assay: NCI-60 one-dose SRB screen (CNS Cancer); details: Homo sapiens, single dose 10 µM, 48 h, read-out: Growth inhibition percent (GI %)
Experimental: as §1, §2

SF-539 = assay: NCI-60 one-dose SRB screen (CNS Cancer); details: Homo sapiens, single dose 10 µM, 48 h, read-out: Growth inhibition percent (GI %)
Experimental: as §1, §2

SNB-19 = assay: NCI-60 one-dose SRB screen (CNS Cancer); details: Homo sapiens, single dose 10 µM, 48 h, read-out: Growth inhibition percent (GI %)
Experimental: as §1, §2

SNB-75 = assay: NCI-60 one-dose SRB screen (CNS Cancer); details: Homo sapiens, single dose 10 µM, 48 h, read-out: Growth inhibition percent (GI %)
Experimental: as §1, §2

U251 = assay: NCI-60 one-dose SRB screen (CNS Cancer); details: Homo sapiens, U-251, single dose 10 µM, 48 h, read-out: Growth inhibition percent (GI %)
Experimental: as §1, §2

LOX IMVI = assay: NCI-60 one-dose SRB screen (Melanoma); details: Homo sapiens, single dose 10 µM, 48 h, read-out: Growth inhibition percent (GI %)
Experimental: as §1, §2

M14 = assay: NCI-60 one-dose SRB screen (Melanoma); details: Homo sapiens, single dose 10 µM, 48 h, read-out: Growth inhibition percent (GI %)
Experimental: as §1, §2

COc1ccc(-c2nn(-c3ccc(S(N)(=O)=O)cc3)cc2C(=O)NNC(N)=S)cc1 [Compound 9c, 2-[3-(4-Methoxyphenyl)-1-(4-sulfamoylphenyl)-1H-pyrazole-4-carbonyl] hydrazine-1-carbothioamide]
inhibition at 10 µM (CCRF-CEM): < 5% | inhibition at 10 µM (HL-60(TB)): < 5% | inhibition at 10 µM (K-562): < 5% | inhibition at 10 µM (MOLT-4): < 5% | inhibition at 10 µM (RPMI-8226): < 5% | inhibition at 10 µM (SR): < 5% | inhibition at 10 µM (A549/ATCC): < 5% | inhibition at 10 µM (EKVX): < 5% | inhibition at 10 µM (HOP-62): < 5% | inhibition at 10 µM (HOP-92): < 5% | inhibition at 10 µM (NCI-H226): < 5% | inhibition at 10 µM (NCI-H23): < 5% | inhibition at 10 µM (NCI-H322M): < 5% | inhibition at 10 µM (NCI-H460): < 5% | inhibition at 10 µM (NCI-H522): 8.06% | inhibition at 10 µM (COLO 205): < 5% | inhibition at 10 µM (HCC-2998): < 5% | inhibition at 10 µM (HCT-116): < 5% | inhibition at 10 µM (HCT-15): < 5% | inhibition at 10 µM (HT29): < 5% | inhibition at 10 µM (KM12): < 5% | inhibition at 10 µM (SW-620): < 5% | inhibition at 10 µM (SF-268): < 5% | inhibition at 10 µM (SF-295): < 5% | inhibition at 10 µM (SF-539): < 5% | inhibition at 10 µM (SNB-19): < 5% | inhibition at 10 µM (SNB-75): < 5% | inhibition at 10 µM (U251): < 5% | inhibition at 10 µM (LOX IMVI): < 5% | inhibition at 10 µM (M14): < 5%
